Source: patent US10888550B2, “Pyrazole derivatives as MALT1 inhibitors” (Janssen Pharmaceutica NV, priority 2018, dated 2021)

Legend:
[1] = target: full-length MALT1 protein (Strep-MALT1(1-824)-His) (Homo sapiens (Human), UniProt Q9UDY8); assay: MALT1 Biochemical Protease Assay; settings: read-out: MALT1_Biochemical activity (Ac-LRSR-amc) IC50; 10 nM FL MALT1, 200 μM Ac-LRSR-AMC, 50 min pre-incubation, 4 h at RT
Text: From this an ICso value (inhibitory concentration causing 50% inhibition) can be obtained.

[2] = tested on: IL6 secretion, OCI-LY3 cells; assay: Human IL6 Mesoscale assay (OCI-LY3); type: cell-based; settings: 24 h incubation
[3] = tested on: IL10 secretion, OCI-LY3 cells; assay: Human IL10 Mesoscale assay (OCI-LY3); type: cell-based; settings: 24 h incubation

full-length MALT1 protein (Strep-MALT1(1-824)-His), sequence (Q9UDY8 whole entry): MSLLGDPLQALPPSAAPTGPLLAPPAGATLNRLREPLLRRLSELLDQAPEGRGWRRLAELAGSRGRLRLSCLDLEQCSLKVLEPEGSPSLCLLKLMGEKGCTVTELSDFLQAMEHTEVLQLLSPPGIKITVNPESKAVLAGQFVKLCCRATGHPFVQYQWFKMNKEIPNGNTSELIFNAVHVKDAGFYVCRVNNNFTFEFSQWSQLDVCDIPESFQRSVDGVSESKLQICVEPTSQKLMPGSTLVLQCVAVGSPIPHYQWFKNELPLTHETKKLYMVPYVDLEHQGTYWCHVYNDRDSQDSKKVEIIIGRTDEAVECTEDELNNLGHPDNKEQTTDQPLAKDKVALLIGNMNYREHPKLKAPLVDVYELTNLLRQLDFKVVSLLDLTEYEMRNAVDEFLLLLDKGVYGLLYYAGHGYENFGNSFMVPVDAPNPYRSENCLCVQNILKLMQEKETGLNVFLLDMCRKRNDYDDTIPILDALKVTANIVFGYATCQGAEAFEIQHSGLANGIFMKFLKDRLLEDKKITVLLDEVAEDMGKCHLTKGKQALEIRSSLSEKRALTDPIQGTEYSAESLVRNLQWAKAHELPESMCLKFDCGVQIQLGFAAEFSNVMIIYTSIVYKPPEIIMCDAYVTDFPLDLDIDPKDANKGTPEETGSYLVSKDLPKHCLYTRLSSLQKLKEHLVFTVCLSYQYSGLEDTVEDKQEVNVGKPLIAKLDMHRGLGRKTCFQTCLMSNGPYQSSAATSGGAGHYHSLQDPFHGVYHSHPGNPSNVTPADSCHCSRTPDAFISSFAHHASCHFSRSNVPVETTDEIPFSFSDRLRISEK

| SMILES | IC50 [1] | IC50 [2] | IC50 [3] |
| --- | --- | --- | --- |
| Cc1cnc(-c2ncc(NC(=O)c3cnn(-c4ccc(F)c5nccn45)c3C(F)(F)F)cc2Cl)o1 [Cpd 9, N-(5-chloro-6-(5-methyloxazol-2-yl)pyridin-3-yl)-1-(8-fluoroimidazo[1,2-a]pyridin-5-yl)-5-(trifluoromethyl)-1H-pyrazole-4-carboxamide] | 81 nM | 240 nM | 129 nM |
| Cc1coc(-c2ncc(NC(=O)c3cnn(-c4ccc(F)c5nccn45)c3C(F)(F)F)cc2Cl)n1 [Cpd 10, N-(5-chloro-6-(4-methyloxazol-2-yl)pyridin-3-yl)-1-(8-fluoroimidazo[1,2-a]pyridin-5-yl)-5-(trifluoromethyl)-1H-pyrazole-4-carboxamide] | 26 nM | 123 nM | 23 nM |
| N#Cc1ccc(-n2ncc(C(=O)Nc3ccnc(C(F)(F)F)c3)c2C(F)(F)F)c2ccnn12 [Cpd 11, 1-(7-cyanopyrazolo[1,5-a]pyridin-4-yl)-5-(trifluoromethyl)-N-(2-(trifluoromethyl)pyridin-4-yl)-1H-pyrazole-4-carboxamide] | 89 nM | 138 nM | 65 nM |
| NC(=O)c1ccc(-n2ncc(C(=O)Nc3ccnc(C(F)(F)F)c3)c2C(F)(F)F)c2ccnn12 [Cpd 12, 4-(5-(trifluoromethyl)-4-((2-(trifluoromethyl)pyridin-4-yl)carbamoyl)-1H-pyrazol-1-yl)pyrazolo[1,5-a]pyridine-7-carboxamide] | 219 nM | 288 nM | 155 nM |
| N#Cc1ccc(-n2ncc(C(=O)Nc3cnc(-n4nccn4)c(Cl)c3)c2C(F)(F)F)c2ccnn12 [Cpd 13, N-(5-chloro-6-(2H-1,2,3-triazol-2-yl)pyridin-3-yl)-1-(7-cyanopyrazolo[1,5-a]pyridin-4-yl)-5-(trifluoromethyl)-1H-pyrazole-4-carboxamide] | 19 nM | 22 nM | 19 nM |

Second part, the molecule after the results:

| IC50 [1] | IC50 [2] | IC50 [3] | SMILES |
| --- | --- | --- | --- |
| 209 nM | 115 nM | 501 nM | O=C(Nc1ccnc(C(F)(F)F)c1)c1cnn(-c2ccc(Cl)n3nccc23)c1C(F)(F)F [Cpd 14, 1-(7-chloropyrazolo[1,5-a]pyridin-4-yl)-5-(trifluoromethyl)-N-(2-(trifluoromethyl)pyridin-4-yl)-1H-pyrazole-4-carboxamide] |
| 33 nM | 47 nM | 31 nM | O=C(Nc1cnc(-n2nccn2)c(Cl)c1)c1cnn(-c2ccc(Cl)n3nccc23)c1C(F)(F)F [Cpd 15, N-(5-chloro-6-(2H-1,2,3-triazol-2-yl)pyridin-3-yl)-1-(7-chloropyrazolo[1,5-a]pyridin-4-yl)-5-(trifluoromethyl)-1H-pyrazole-4-carboxamide] |
| 25 nM | 42 nM | 41 nM | NC(=O)c1ccc(-n2ncc(C(=O)Nc3cnc(-n4nccn4)c(Cl)c3)c2C(F)(F)F)c2ccnn12 [Cpd 16, 4-(4-((5-chloro-6-(2H-1,2,3-triazol-2-yl)pyridin-3-yl)carbamoyl)-5-(trifluoromethyl)-1H-pyrazol-1-yl)pyrazolo[1,5-a]pyridine-7-carboxamide] |
